Test results published in patent US8481584B2, “1H-thieno[2,3-c]pyrazole derivatives useful as kinase inhibitors” (Nerviano Medical Sciences S.R.L., priority 2004, dated 2013).

target: T1, Aurora-2 (Homo sapiens, UniProt O14965); test: Inhibition assay of Aurora-2 activity (SPA technology); format: biochemical; details: screened according to the methods of the pharmacology section; read-out: IC50 values for Aurora-2 inhibition
T1 sequence (O14965 1-403): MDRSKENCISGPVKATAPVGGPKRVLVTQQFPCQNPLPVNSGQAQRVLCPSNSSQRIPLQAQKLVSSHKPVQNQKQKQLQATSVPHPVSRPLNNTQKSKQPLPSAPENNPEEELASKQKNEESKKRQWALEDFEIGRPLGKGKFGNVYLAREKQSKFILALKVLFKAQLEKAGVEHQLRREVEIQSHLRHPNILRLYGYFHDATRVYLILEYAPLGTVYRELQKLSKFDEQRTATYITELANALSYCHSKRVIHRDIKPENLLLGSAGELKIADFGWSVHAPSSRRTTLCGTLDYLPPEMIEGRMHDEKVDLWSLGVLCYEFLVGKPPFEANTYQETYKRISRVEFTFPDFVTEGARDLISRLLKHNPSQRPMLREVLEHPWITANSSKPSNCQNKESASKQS
Experimental: The inhibiting activity and the potency of selected compounds is determined through a method of assay based on the use of the SPA technology (Amersham Pharmacia Biotech).
The assay consists of the transfer of radioactivity labelled phosphate moiety by the kinase to a biotinylated substrate. The resulting 33P-labelled biotinylated product is allowed to bind to streptavidin-coated SPA beads (biotin capacity 130 pmol/mg), and light emitted was measured in a scintillation counter.
Inhibition Assay of Aurora-2 Activity
After 60 minutes at room temperature incubation, reaction was stopped and biotinylated peptide captured by adding 100 μl of bead suspension.
Stratification: 100 μl of CsCl2 5 M were added to each well and let stand 4 hour before radioactivity was counted in the Top-Count instrument.
Experimental data were analyzed by the computer program GraphPad Prizm using the four parameter logistic equation: y=bottom+(top−bottom)/(1+10^((logIC50−x)*slope)) where x is the logarithm of the inhibitor concentration, y is the response; y starts at bottom and goes to top with a sigmoid shape.

IC50, < 20 nM:
CC(C)(NC(=O)c1cc2c(NC(=O)c3ccc(CN4CCSC4)cc3)n[nH]c2s1)c1ccccc1 [Compound 49, 3-(4-Thiazolidin-3-ylmethyl-benzoylamino)-1H-thieno[2,3-c]pyrazole-5-carboxylic acid (1-methyl-1-phenyl-ethyl)-amide]
CC(C)(NC(=O)c1cc2c(NC(=O)c3ccc(Cn4ccnc4)cc3)n[nH]c2s1)c1ccccc1 [Compound 48, 3-(4-Imidazol-1-ylmethyl-benzoylamino)-1H-thieno[2,3-c]pyrazole-5-carboxylic acid (1-methyl-1-phenyl-ethyl)-amide]
CC(C)(NC(=O)c1cc2c(NC(=O)c3ccc(N4CCOCC4)cc3)n[nH]c2s1)c1ccncc1 [Compound 138, 3-(4-Morpholin-4-yl-benzoylamino)-1H-thieno[2,3-c]pyrazole-5-carboxylic acid (1-methyl-1-pyridin-4-yl-ethyl)-amide]
COc1cccc(C(C)(C)NC(=O)c2cc3c(NC(=O)c4ccc(N5CCOCC5)cc4)n[nH]c3s2)c1 [Compound 140, 3-(4-Morpholin-4-yl-benzoylamino)-1H-thieno[2,3-c]pyrazole-5-carboxylic acid [1-(3-methoxy-phenyl)-1-methyl-ethyl]-amide]
CN(C)CCOc1ccc(C(=O)Nc2n[nH]c3sc(C(=O)NC(C)(C)c4ccccc4F)cc23)cc1 [Compound 126, 3-[4-(2-Dimethylamino-ethoxy)-benzoylamino]-1H-thieno[2,3-c]pyrazole-5-carboxylic acid [1-(2-fluoro-phenyl)-1-methyl-ethyl]-amide]
CC(C)NCc1ccc(C(=O)Nc2n[nH]c3sc(C(=O)NC(C)(C)c4ccccc4)cc23)cc1 [Compound 40, 3-[4-(Isopropylamino-methyl)-benzoylamino]-1H-thieno[2,3-c]pyrazole-5-carboxylic acid (1-methyl-1-phenyl-ethyl)-amide]
CC(C)(NC(=O)c1cc2c(NC(=O)c3ccc(CN4CCCC4)cc3)n[nH]c2s1)c1ccc(F)cc1 [Compound 58, 3-(4-Pyrrolidin-1-ylmethyl-benzoylamino)-1H-thieno[2,3-c]pyrazole-5-carboxylic acid [1-(4-fluoro-phenyl)-1-methyl-ethyl]-amide]
CC(C)(NC(=O)c1cc2c(NC(=O)c3ccc(CN4CCCC4)cc3)n[nH]c2s1)c1cccc(F)c1 [Compound 50, 3-(4-Pyrrolidin-1-ylmethyl-benzoylamino)-1H-thieno[2,3-c]pyrazole-5-carboxylic acid [1-(3-fluoro-phenyl)-1-methyl-ethyl]-amide]
CN1CCN(c2ccc(C(=O)Nc3n[nH]c4sc(C(=O)NC(C)(C)c5cccc(F)c5)cc34)cc2)CC1 [Compound 142, 3-[4-(4-Methyl-piperazin-1-yl)-benzoylamino]-1H-thieno[2,3-c]pyrazole-5-carboxylic acid [1-(3-fluoro-phenyl)-1-methyl-ethyl]-amide]
O=C(Nc1n[nH]c2sc(C(=O)NC3(c4ccccc4)CCCC3)cc12)c1cccs1 [Compound 122, 3-[(Thiophene-2-carbonyl)-amino]-1H-thieno[2,3-c]pyrazole-5-carboxylic acid (1-phenyl-cyclopentyl)-amide]
Cn1cccc1C(=O)Nc1n[nH]c2sc(C(=O)NC3(c4ccccc4)CC3)cc12 [Compound 22, 3-{[(1-methyl-1H-pyrrol-2-yl)carbonyl]amino}-N-(1-phenylcyclopropyl)-1H-thieno[2,3-c]pyrazole-5-carboxamide]
O=C(Nc1n[nH]c2sc(C(=O)NC3(c4ccccc4)CC3)cc12)c1ccc(F)cc1 [Compound 7, 3-[(4-fluorobenzoyl)amino]-N-(1-phenylcyclopropyl)-1H-thieno[2,3-c]pyrazole-5-carboxamide]
CC[C@@H](NC(=O)c1cc2c(NC(=O)c3ccc(F)cc3)n[nH]c2s1)c1ccccc1 [Compound 9, 3-[(4-fluorobenzoyl)amino]-N-[(1R)-1-phenylpropyl]-1H-thieno[2,3-c]pyrazole-5-carboxamide]
CC(C)(NC(=O)c1cc2c(NC(=O)c3ccc(S(C)(=O)=O)cc3)n[nH]c2s1)c1ccccc1 [Compound 143, 3-(4-Methanesulfonyl-benzoylamino)-1H-thieno[2,3-c]pyrazole-5-carboxylic acid(1-methyl-1-phenyl-ethyl)-amide]
CC(C)(NC(=O)c1cc2c(NC(=O)c3cccs3)n[nH]c2s1)c1ccc(F)cc1 [Compound 151, 3-[(Thiophene-2-carbonyl)-amino]-1H-thieno[2,3-c]pyrazole-5-carboxylic acid [1-(4-fluoro-phenyl)-1-methyl-ethyl]-amide]
CC(C)(NC(=O)c1cc2c(NC(=O)c3ccc(CN4CCCCC4)cc3)n[nH]c2s1)c1ccc(F)cc1 [Compound 59, 3-(4-Piperidin-1-ylmethyl-benzoylamino)-1H-thieno[2,3-c]pyrazole-5-carboxylic acid [1-(4-fluoro-phenyl)-1-methyl-ethyl]-amide]
CC(C)(NC(=O)c1cc2c(NC(=O)c3ccc(CN4CCC(F)CC4)cc3)n[nH]c2s1)c1ccccc1 [Compound 46]
CN1CCN(c2ccc(C(=O)Nc3n[nH]c4sc(C(=O)NC5(c6ccccc6)CCCC5)cc34)cc2)CC1 [Compound 34, 3-{[4-(4-methylpiperazin-1-yl)benzoyl]amino}-N-(1-phenylcyclopentyl)-1H-thieno[2,3-c]pyrazole-5-carboxamide]
O=C(Nc1n[nH]c2sc(C(=O)NC3(c4ccccc4)CC3)cc12)c1cccs1 [Compound 18, N-(1-phenylcyclopropyl)-3-[(thien-2-ylcarbonyl)amino]-1H-thieno[2,3-c]pyrazole-5-carboxamide]
C[C@@H](NC(=O)c1cc2c(NC(=O)c3ccc(F)cc3)n[nH]c2s1)c1ccc(F)cc1 [Compound 11, 3-[(4-fluorobenzoyl)amino]-N-[(1R)-1-(4-fluorophenyl)ethyl]-1H-thieno[2,3-c]pyrazole-5-carboxamide]
CC(C)(NC(=O)c1cc2c(NC(=O)c3ccc(CN4CCCCC4)cc3)n[nH]c2s1)c1ccccc1 [Compound 39, 3-(4-Piperidin-1-ylmethyl-benzoylamino)-1H-thieno[2,3-c]pyrazole-5-carboxylic acid(1-methyl-1-phenyl-ethyl)-amide]
CN1CCN(c2ccc(C(=O)Nc3n[nH]c4sc(C(=O)N[C@H](CN5CCCC5)c5ccccc5)cc34)cc2)CC1 [Compound 32, 3-{[4-(4-methylpiperazin-1-yl)benzoyl]amino}-N-[(1S)-1-phenyl-2-pyrrolidin-1-ylethyl]-1H-thieno[2,3-c]pyrazole-5-carboxamide]
CC(C)(NC(=O)c1cc2c(NC(=O)c3ccc(CN4CCN(C(C)(C)C)CC4)cc3)n[nH]c2s1)c1ccccc1 [Compound 57, 3-[4-(4-tert-Butyl-piperazin-1-ylmethyl)-benzoylamino]-1H-thieno[2,3-c]pyrazole-5-carboxylic acid (1-methyl-1-phenyl-ethyl)-amide]
O=C(Nc1n[nH]c2sc(C(=O)N[C@H](CN3CCOCC3)c3ccccc3)cc12)c1ccc(N2CCOCC2)cc1 [Compound 6, 3-[(4-morpholin-4-ylbenzoyl)amino]-N-[(1S)-2-morpholin-4-yl-1-phenylethyl]-1H-thieno[2,3-c]pyrazole-5-carboxamide]
